Measurements as given in DBAASP.
≈ marks a conversion by molar mass, not a printed value.

How the values were obtained:
Test in all cases: ≥ marks a high value that may be exact or a test limit, other limits are often not marked, values filed in µg/mL are converted to µM
[1] = system: Escherichia coli IFO 3301
[2] = system: Bacillus subtilis IFO 3336
[3] = system: Staphylococcus aureus CCARM 3001
[4] = system: Pseudomonas aeruginosa KCTC 1637
[5] = system: Pseudomonas aeruginosa CCARM 2095
[6] = system: Pseudomonas aeruginosa CCARM 2109
[7] = system: Staphylococcus aureus CCARM 3543
[8] = system: Staphylococcus epidermidis KCTC 1917
[9] = system: Salmonella typhimurium KCTC 1926
[10] = system: Staphylococcus aureus KCTC 1621
[11] = system: Bacillus subtilis KCTC 3068
[12] = system: Escherichia coli KCTC 1682
[13] = system: Streptococcus gordonii ATCC 10558
[14] = system: Streptococcus mutans ATCC 104495
[15] = system: Streptococcus sanguinis NY101
[16] = system: Streptococcus mutans UA140
[17] = system: Streptococcus sanguinis ATCC 10556
[18] = system: Streptococcus mutans ATCC 25175
[19] = system: Streptococcus salivarius K12
Streptococcus mutans T8 = system: Streptococcus mutans T8
[20] = system: Streptococcus gordonii DL1
[21] = system: Streptococcus mutans comD
[22] = system: Streptococcus mutans UA159

## NC(N)=NCCC[C@H](NC(=O)[C@H](Cc1cnc[nH]1)NC(=O)[C@H](CCCN=C(N)N)NC(=O)[C@H](Cc1cnc[nH]1)NC(=O)[C@H](CCCN=C(N)N)NC(=O)[C@H](Cc1cnc[nH]1)NC(=O)[C@H](CCCN=C(N)N)NC(=O)[C@H](Cc1cnc[nH]1)NC(=O)[C@H](CCCN=C(N)N)NC(=O)[C@@H](N)Cc1cnc[nH]1)C(=O)O [HRHRHRHRHR]
[1]
  MIC: 6.74 µM (≈ 10 µg/mL)
[2]
  MIC: 6.74 µM (≈ 10 µg/mL)

## CC(C)C[C@H](NC(=O)[C@H](CC(C)C)NC(=O)[C@H](Cc1c[nH]c2ccccc12)NC(=O)[C@H](CCCCN)NC(=O)[C@H](CC(C)C)NC(=O)[C@H](Cc1c[nH]c2ccccc12)NC(=O)[C@H](CC(C)C)NC(=O)[C@H](CC(C)C)NC(=O)[C@H](Cc1c[nH]c2ccccc12)NC(=O)[C@H](CC(C)C)NC(=O)[C@@H](N)CCCCN)C(N)=O [KLWLLWLKWLL]
[3]
  MIC: ≥ 64 µM
[4]
  MIC: 16 µM (≈ 24.2 µg/mL)
[5]
  MIC: ≥ 64 µM
[6]
  MIC: ≥ 64 µM
[7]
  MIC: ≥ 32 µM
[8]
  MIC: ≥ 32 µM
[9]
  MIC: ≥ 32 µM
[10]
  MIC: ≥ 32 µM
[11]
  MIC: ≥ 32 µM
[12]
  MIC: ≥ 32 µM

## CC[C@H](C)[C@H](NC(=O)CNC(=O)[C@H](CCCCN)NC(=O)[C@H](CCCN=C(N)N)NC(=O)[C@@H](NC(=O)[C@@H](NC(=O)[C@H](CCCN=C(N)N)NC(=O)[C@H](CC(C)C)NC(=O)[C@H](CC(N)=O)NC(=O)[C@@H](N)CCCCN)[C@@H](C)CC)[C@@H](C)CC)C(=O)N[C@@H](Cc1cnc[nH]1)C(=O)N[C@H](C(=O)N[C@H](C(=O)N[C@@H](CCCCN)C(=O)N[C@@H](CCCCN)C(=O)N[C@@H](Cc1ccc(O)cc1)C(N)=O)[C@@H](C)CC)[C@@H](C)CC [KNLRIIRKGIHIIKKY]
[13]
  MIC: ≥ 50 µM
[14]
  MIC: ≥ 33.3 µM
[15]
  MIC: ≥ 33.6 µM
[16]
  MIC: ≥ 33.3 µM
[17]
  MIC: ≥ 50 µM
[18]
  MIC: 14.8 µM (≈ 29.5 µg/mL)
[19]
  MIC: 16.7 µM (≈ 33.3 µg/mL)
Streptococcus mutans T8
  MIC: 14.2 µM (≈ 28.3 µg/mL)
[20]
  MIC: ≥ 41.3 µM
[21]
  MIC: 15.3 µM (≈ 30.5 µg/mL)
[22]
  MIC: 12.1 µM (≈ 24.1 µg/mL)
